Assay results taken from US7495001B2, “Benzannelated derivatives, their manufacture and use as pharmaceutical agents” (Hoffmann-La Roche Inc., priority 2003, dated 2009).

Experiments:
PPARδ = molecular target: T1, PPARδ (Homo sapiens, UniProt Q03181); assay: PPARδ radioligand binding assay (scintillation proximity, GST-PPARδ-LBD); settings: GST-PPARδ-LBD fusion protein, SPA radioligand binding
T1 construct: PPARδ (aa 139 to 442); made in house; host or cells: E. coli BL21 (pLysS)
T1 sequence (Q03181 139-441 limits assumed): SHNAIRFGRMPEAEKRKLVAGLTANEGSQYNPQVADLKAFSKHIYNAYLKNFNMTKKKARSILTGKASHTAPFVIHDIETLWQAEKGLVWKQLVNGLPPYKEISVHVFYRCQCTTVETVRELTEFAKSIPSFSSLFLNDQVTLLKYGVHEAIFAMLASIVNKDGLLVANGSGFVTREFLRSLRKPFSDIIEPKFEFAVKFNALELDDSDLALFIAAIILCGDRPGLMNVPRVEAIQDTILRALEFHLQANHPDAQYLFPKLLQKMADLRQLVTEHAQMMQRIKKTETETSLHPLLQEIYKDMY
Excerpt: (§1) Background information on the performed assays can be found in: Nichols J S et al. “Development of a scintillation proximity assay for peroxisome proliferator-activated receptor gamma ligand binding domain”, (1998) Anal. Biochem. 257:112-119.
(§2) Full-length cDNA clones for humans PPARδ and PPARα and mouse PPARγ were obtained by RT-PCR from human adipose and mouse liver cRNA, respectively, cloned into plasmid vectors and verified by DNA sequencing. Bacterial and mammalian expression vectors were constructed to produce glutathione-s-transferase (GST) and Gal4 DNA binding domain proteins fused to the ligand binding domains (LBD) of PPARδ (aa 139 to 442), PPARγ (aa 174 to 476) and PPARα (aa 167 to 469). To accomplish this, the portions of the cloned sequences encoding the LBDs were amplified from the full-length clones by PCR and then subcloned into the plasmid vectors. Final clones were verified by DNA sequence analysis.
(§3) Induction, expression, and purification of GST-LBD fusion proteins were performed in E. coli strain BL21 (pLysS) cells by standard methods (Ref: Current Protocols in Molecular Biology, Wiley Press, edited by Ausubel et al.).
(§4) Radioligand Binding Assay
PPARδ receptor binding was assayed in HNM10 (50 mM Hepes, pH 7.4, 10 mM NaCl, 5 mM MgCl2, 0.15 mg/ml fatty acid-free BSA and 15 mM DTT). For each 96 well reaction a 500 ng equivalent of GST-PPARδ-LBD fusion protein and radioligand, e.g. 20000 dpm {2-methyl-4-[4-methyl-2-(4-trifluoromethyl-phenyl)-thiazol-5-yl-ditritiomethylsulfanyl]-phenoxy}-acetic acid, was bound to 10 μg SPA beads (PharmaciaAmersham) in a final volume of 50 μl by shaking. The resulting slurry was incubated for 1 h at RT and centrifuged for 2 min at 1300 g. […] Radioligand was added and the reaction incubated at RT for 1 h and scintillation proximity counting performed in the presence of test compounds was determined. All binding assays were performed in 96 well plates and the amount of bound ligand was measured on a Packard TopCount using OptiPlates (Packard). […]

PPARα = molecular target: T2, PPARα (Homo sapiens, UniProt Q07869); assay: PPARα radioligand binding assay (scintillation proximity, GST-PPARα-LBD); settings: GST-PPARα-LBD fusion protein, SPA radioligand binding
T2 construct: PPARα (aa 167 to 469); made in house; host or cells: E. coli BL21 (pLysS)
T2 sequence (Q07869 167-468 limits assumed): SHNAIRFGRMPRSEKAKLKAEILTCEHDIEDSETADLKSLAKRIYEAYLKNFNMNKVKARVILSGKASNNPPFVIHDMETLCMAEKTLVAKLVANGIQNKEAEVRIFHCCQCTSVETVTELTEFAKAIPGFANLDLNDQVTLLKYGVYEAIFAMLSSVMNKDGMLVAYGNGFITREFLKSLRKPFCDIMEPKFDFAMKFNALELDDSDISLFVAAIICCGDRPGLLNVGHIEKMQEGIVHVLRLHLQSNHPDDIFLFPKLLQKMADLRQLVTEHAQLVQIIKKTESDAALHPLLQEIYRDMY
Excerpt: as §1, §2, §3, §4
(§5) PPARα receptor binding was assayed in TKE50 (50 mM Tris-HCl, pH 8, 50 mM KCl, 2 mM EDTA, 0.1 mg/ml fatty acid-free BSA and 10 mM DTT). For each 96 well reaction an 140 ng equivalent of GST-PPARα-LBD fusion protein was bound to 10 μg SPA beads (PharmaciaAmersham) in a final volume of 50 μl by shaking. The resulting slurry was incubated for 1 h at RT and centrifuged for 2 min at 1300 g. The supernatant containing unbound protein was removed and the semidry pellet containing the receptor-coated beads was resolved in 50 μl of TKE. […] All binding assays were performed in 96 well plates and the amount of bound ligand measured on a Packard TopCount using OptiPlates (Packard). Nonspecific binding was determined in the presence of 10^−4 M unlabelled compound. […]

PPARγ = molecular target: T3, PPARγ (Mus musculus, UniProt P37238); assay: PPARγ radioligand binding assay (scintillation proximity, GST-PPARγ-LBD); settings: GST-PPARγ-LBD fusion protein, SPA radioligand binding
T3 construct: PPARγ (aa 174 to 476); made in house; host or cells: E. coli BL21 (pLysS)
T3 sequence (P37238 204-505): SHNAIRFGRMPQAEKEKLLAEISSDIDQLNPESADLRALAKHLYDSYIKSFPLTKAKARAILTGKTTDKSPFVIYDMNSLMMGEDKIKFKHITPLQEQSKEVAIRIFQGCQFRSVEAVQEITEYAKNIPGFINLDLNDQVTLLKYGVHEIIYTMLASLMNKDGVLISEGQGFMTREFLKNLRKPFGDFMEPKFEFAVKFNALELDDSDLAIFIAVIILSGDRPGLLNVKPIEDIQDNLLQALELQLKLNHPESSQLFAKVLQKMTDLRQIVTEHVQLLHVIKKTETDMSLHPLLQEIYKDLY
Excerpt: as §1, §2, §3, §4
as §5, with “PPARγ” for “PPARα”, “GST-PPARγ-LBD” for “GST-PPARα-LBD”, “ul” for “μl”

Question: With Cc1nc(-c2ccc(C(F)(F)F)cc2)ccc1C(C)N(C)c1ccc(OCC(=O)O)c2ccccc12 (racemic) [Example 1, [rac]-[4-(Methyl-{1-[2-methyl-6-(4-trifluoromethyl-phenyl)-pyridin-3-yl]-ethyl}-amino)-naphthalen-1-yloxy]-acetic acid] as the compound, how does the melting point read?
Answer: The melting point was 157 to 158 °C.

Question: Which IC50 (PPARδ) does the source give for COC(Cc1cc(OCCc2ccc(-c3ccc(C(F)(F)F)cc3)nc2C)c2ccccc2c1)C(=O)O (racemic) [Example 4, [rac]-2-Methoxy-3-(4-{2-[2-methyl-6-(4-trifluoromethyl-phenyl)-pyridin-3-yl]-ethoxy}-naphthalen-2-yl)-propionic acid] here?
Answer: The IC50 was 295 nM.

Question: And the IC50 (PPARα)?
Answer: The IC50 was 37 nM.

Question: And the IC50 (PPARγ)?
Answer: The IC50 was over 10000 nM.

Question: What does the source list for Cc1nc(-c2ccc(C(F)(F)F)cc2)ccc1COc1ccc(CCC(=O)O)c2c1CCCC2 [Example 5, 3-{4-[2-Methyl-6-(4-trifluoromethyl-phenyl)-pyridin-3-ylmethoxy]-5,6,7,8-tetrahydro-naphthalen-1-yl}-propionic acid]?
Answer: IC50 (PPARδ): 106 nM; IC50 (PPARα): 716 nM; IC50 (PPARγ): > 10000 nM

Question: With CCCC(c1ccc(-c2cccc(C(F)(F)F)c2)nc1C)N(C)c1ccc(OCC(=O)O)c2ccccc12 (racemic) [Example 3, [rac]-[4-(Methyl-{1-[2-methyl-6-(3-trifluoromethyl-phenyl)-pyridin-3-yl]-butyl}-amino)-naphthalen-1-yloxy]-acetic acid] as the compound, how does the IC50 (PPARδ) read?
Answer: The IC50 was 65 nM.

Question: And the IC50 (PPARα)?
Answer: The IC50 was 3580 nM.

Question: And the IC50 (PPARγ)?
Answer: The IC50 was over 10000 nM.

Question: Which melting point does the source give for CCC(c1ccc(-c2cccc(C(F)(F)F)c2)nc1C)N(C)c1ccc(OCC(=O)O)c2ccccc12 (racemic) [Example 2, [rac]-[4-(Methyl-{1-[2-methyl-6-(3-trifluoromethyl-phenyl)-pyridin-3-yl]-propyl}-amino)-naphthalen-1-yloxy]-acetic acid] here?
Answer: Its melting point is 76 to 78 °C.
